Assays:
[1] = target: AKT1 (Homo sapiens, UniProt P31749, S473D); assay: Determination of the IC50 for AKT1 (HTRF); assay type: biochemical; conditions: AKT1 without PH domain, activated by PDK1
Summary of the method: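 HTRF assay of AKT1 (S473D) kinase activity on a biotinylated peptide substrate, with 100 μM ATP and 10 μM peptide in the initiating solution.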

[2] = system: MEF-IGF1 murine fibroblast cells; assay: IGF1-dependent proliferation of MEF-IGF1 cells via incorporation of [14C]-thymidine; assay type: cell-based; conditions: Mus musculus, Fibroblast; [14C]-thymidine incorporation, IGF1 stimulated, 72 hours; read-out: IC50 MEF-IGF
Text: a. Study of the IGF1-Dependent Proliferation of MEF-IGF1 Murine Fibroblast Cells Measured via Incorporation of [14C]-Thymidine
This test is based on the incorporation of [^14C]-thymidine into the DNA of the cells for the S phase of the cell cycle during cell division. The cell line used in this test is the MEF/3T3 Tet-Off Clone 18 line obtained by stable transfection of the human receptor IGF1R in murine MEF/3T3 Tet-Off fibroblasts. To measure the IGF1-dependent cell proliferation, the cells were deprived of serum and cultured for 3 days in the serum-free culture medium in the presence of the growth factor IGF1 which stimulates the proliferation of MEF-IGF1 cells.
Test of Incorporation of [^14C]-Thymidine into MEF-IGF1 Cells
On day 1, the cells were inoculated with 7500 cells per well in Cytostar 96-well microplates (Amersham (GE) RPNQ0162) in 200 μl of EMEM medium (EMEM, Biowhittaker, #BE12-662F) containing 10% foetal calf serum (FCS, TET-BD Biosciences Tet System Approved FBS US-Sourced, #8630-1) and 1% PSG (Penicillin-Streptomycin-Glutamine (PSG), Gibco #10378-016), and incubated at 37° C., 5% CO2, for 24 hours. On day 2, the cells were washed in the FCS-free EMEM culture medium containing 1% PSG, and incubated in 170 μl of this serum-free culture medium at 37° C., 5% CO2, for 24 hours. On day 3, the cells were incubated with 10 μl of IGF1 (2 μg/ml of final concentration; recombinant human IGF-1, R & D Systems, #291-G1), 10 μl (0.1 μCi) of [^14C]-Thymidine (NEN NEC-568) plus 10 μl of increasing concentrations of the test molecules, diluted in dimethyl sulfoxide (DMSO, Sigma D2650). The molecules were added in a volume of 10 μl of a 20-fold concentrated solution in a final volume of 200 μl, the final percentage of DMSO being 0.1%. The treated cells were incubated at 37° C., 5% CO2, for 72 hours. The incorporation of [^14C]-Thymidine was quantified in cpm units (counts per minute) by counting the radioactivity 72 hours after the start of the treatment, using a Micro-Beta radioactivity counter (Perkin-Elmer). The tests were performed in duplicate.
i) the mean±s.e.m. of each series of well replicates was calculated;
ii) the background noise is calculated by preparing cell-free, IGF1-free and untreated control wells; this control was performed in 4 replicates. The background noise was removed at each measurement;
iii) the maximum response is given by positive control wells containing cells in the presence of IGF1 but untreated; this control was performed in 4 replicates;
iv) the minimum response is given by negative control wells containing IGF1-free and untreated cells; this control was performed in 4 replicates;
The IC50 values were calculated by […] with the XLfit software (IDBS, UK) using formula 205.

Chain of AKT1 (P31749 118-480 S473D limits assumed): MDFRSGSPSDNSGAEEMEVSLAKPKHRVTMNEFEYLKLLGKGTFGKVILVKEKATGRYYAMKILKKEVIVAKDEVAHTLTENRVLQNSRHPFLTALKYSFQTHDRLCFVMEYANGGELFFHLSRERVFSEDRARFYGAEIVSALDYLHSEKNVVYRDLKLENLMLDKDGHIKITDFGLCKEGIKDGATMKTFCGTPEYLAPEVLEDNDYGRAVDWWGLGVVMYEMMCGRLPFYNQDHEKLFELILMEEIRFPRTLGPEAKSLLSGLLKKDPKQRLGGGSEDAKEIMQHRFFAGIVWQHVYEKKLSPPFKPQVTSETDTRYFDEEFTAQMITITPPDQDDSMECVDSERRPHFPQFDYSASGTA

Structure (SMILES)	IC50 [1] [nM]	IC50 [2] [nM]
O=C(Nc1ccc2[nH]ncc2c1)N[C@@H](c1cc(F)cc(Cl)c1)[C@@H]1CCCCN1 [Ex 3, 1-{(S)-(3-Chloro-5-fluorophenyl)[(2S)-piperid-2-yl]methyl}-3-(1H-indazol-5-yl)urea]	< 100	790
CN1CCCCC1C(NC(=O)Nc1ccc2[nH]nc(-c3ccncc3)c2c1)c1ccccc1 [Ex 13, 1-[(1-Methylpiperid-2-yl)(phenyl)methyl]-3-(3-pyrid-4-yl-1H-indazol-5-yl)urea((S,2S),(R,2R))]	100 to 500	5120
Cc1n[nH]c2ccc(NC(=O)NC(c3ccccc3)C3CCCCN3C)cc12 [Ex 18, 3-Methyl-5-({[(1-methylpiperid-2-yl)(phenyl)methyl]carbamoyl}amino)-1H-indazole ((S,2S),(R,2R))]	< 100	290
CN1CCCCC1C(NC(=O)Nc1ccc2[nH]nc(C#Cc3ccc(F)cc3)c2c1)c1ccccc1 [Ex 24, 1-{3-[(4-Fluorophenyl)ethynyl]-1H-indazol-5-yl}-3-[(1-methylpiperid-2-yl)(phenyl)methyl]urea((S,2S),(R,2R))]	< 100	860
CN1CCCCC1C(NC(=O)Nc1ccc2[nH]nc(C#Cc3cccnc3)c2c1)c1ccccc1 [Ex 25, 1-[(1-Methylpiperid-2-yl)(phenyl)methyl]-3-[3-(pyrid-3-ylethynyl)-1H-indazol-5-yl]urea((S,2S),(R,2R))]	< 100	366
O=C(Nc1ccc2[nH]ncc2c1)O[C@@H](c1cc(F)cc(Cl)c1)[C@@H]1CCCCN1 [Ex 35, (S)-(3-Chloro-5-fluorophenyl)[(2S)-piperid-2-yl]methyl 1H-indazol-5-ylcarbamate]	< 100	560
O=C(Nc1ccc2[nH]ncc2c1)O[C@@H](c1cccc(Br)c1)[C@@H]1CCCCN1 [Ex 46]	< 100	546

Second part, led by results:

IC50 [1] [nM]	Structure (SMILES)	IC50 [2] [nM]
< 100	O=C(Nc1ccc2[nH]ncc2c1)N[C@@H](c1ccc(Cl)c(Cl)c1)[C@@H]1CCCCN1 [Ex 4, 1-{(S)-(3,4-Dichlorophenyl)[(2S)-piperid-2-yl]methyl}-3-(1H-indazol-5-yl)urea]	500
< 100	O=C(Nc1ccc2[nH]ncc2c1)NC(c1cc(F)cc(Cl)c1)C1CCCCN1 (centres unmarked) [Ex 5, 1-[(3-Chloro-5-fluorophenyl)(piperid-2-yl)methyl]-3-(1H-indazol-5-yl)urea]	< 100
< 100	CN1CCCCC1C(NC(=O)Nc1ccc2[nH]ncc2c1)c1cc(F)cc(Cl)c1 (centres unmarked) [Ex 11, 1-[(3-Chloro-5-fluorophenyl)(1-methylpiperid-2-yl)methyl]-3-(1H-indazol-5-yl)urea]	2920
100 to 500	CN1CCCCC1C(NC(=O)Nc1cc(F)c2[nH]ncc2c1)c1ccccc1 [Ex 21, 1-(7-Fluoro-1H-indazol-5-yl)-3-[(1-methylpiperid-2-yl)(phenyl)methyl]urea((S,2S),(R,2R))]	2820
< 100	S=C(Nc1ccc2[nH]ncc2c1)N[C@@H](c1ccc(Cl)c(Cl)c1)[C@@H]1CCCCN1 [Ex 31, 1-{(S)-(3,4-Dichlorophenyl)[(2S)-piperid-2-yl]methyl}-3-(1H-indazol-5-yl)thiourea]	1270
< 100	O=C(Nc1ccc2[nH]ncc2c1)OC(c1cc(Cl)cc(Cl)c1)C1CCCCN1 [Ex 34, (3,5-Dichlorophenyl)[piperid-2-yl]methyl 1H-indazol-5-ylcarbamate((S,2S),(R,2R))]	600
< 100	CN1CCCCC1C(OC(=O)Nc1ccc2[nH]ncc2c1)c1cc(F)cc(Cl)c1 (centres unmarked) [Ex 36, (3-Chloro-5-fluorophenyl)(1-methylpiperid-2-yl)methyl 1H-indazol-5-ylcarbamate]	770
< 100	O=C(Nc1ccc2[nH]ncc2c1)O[C@H](c1ccc(Cl)c(Cl)c1)[C@H]1CCCCN1 [Ex 37, (R)-(3,4-Dichlorophenyl)[(2R)-piperid-2-yl]methyl 1H-indazol-5-ylcarbamate]	278
< 100	O=C(Nc1ccc2[nH]ncc2c1)O[C@@H](c1ccc(Cl)c(Cl)c1)[C@@H]1CCCCN1 [Ex 38b, (S)-(3,4-Dichlorophenyl)[(2S)-piperid-2-yl]methyl 1H-indazol-5-ylcarbamate]	963
